Test results reported in the NIST ThermoML archive (doi:10.1021/acs.jced.5b00181).

Experiment: xn = mol fraction of the nth substance listed
Conditions: 101 kPa, Liquid; for viscosity: Falling or rolling sphere viscometry; for speed of sound: Frequency=3 MHz, Sing-around technique in a fixed-path interferometer; for mass density: Vibrating tube method

CCCCCC[n+]1ccn(C)c1.O=S(=O)([N-]S(=O)(=O)C(F)(F)F)C(F)(F)F + CCCO
Conditions | mass density [kg/m3] | speed of sound [m/s] | viscosity [mPa·s]
278.15 K, x1 = 0.048 | 920.02 | 1255.6 | 4.973
278.15 K, x1 = 0.0991 | 1003.18 | 1246.2 | 7.263
278.15 K, x1 = 0.1928 | 1109.95 | 1243.7 | 13.14
278.15 K, x1 = 0.2895 | 1184.1 | 1246.9 | 20.71
278.15 K, x1 = 0.3911 | 1239.44 | 1252 | 30.93
278.15 K, x1 = 0.4877 | 1278.76 | 1256.3 | 44.03
278.15 K, x1 = 0.6028 | 1314.62 | 1261.3 | 63.47
278.15 K, x1 = 0.6999 | 1338.53 | 1265.1 | 87.45
278.15 K, x1 = 0.8016 | 1359.18 | 1268.5 | 117.11
278.15 K, x1 = 0.8999 | 1375.88 | 1271.5 | 155.87
298.15 K, x1 = 0.048 | 903.08 | 1191.5 | 2.872
298.15 K, x1 = 0.0991 | 985.65 | 1186 | 3.917
298.15 K, x1 = 0.1928 | 1091.69 | 1187.7 | 6.538
298.15 K, x1 = 0.2895 | 1165.51 | 1193.5 | 9.707
298.15 K, x1 = 0.3911 | 1220.7 | 1200.4 | 13.78
298.15 K, x1 = 0.4877 | 1259.96 | 1205.8 | 18.59
298.15 K, x1 = 0.6028 | 1295.83 | 1211.8 | 25.71
298.15 K, x1 = 0.6999 | 1319.79 | 1216.2 | 33.17
298.15 K, x1 = 0.8016 | 1340.46 | 1220.1 | 42.83
298.15 K, x1 = 0.8999 | 1357.18 | 1223.3 | 54.58
318.15 K, x1 = 0.048 | 885.86 | 1129.7 | 1.799
318.15 K, x1 = 0.0991 | 967.85 | 1128.2 | 2.374
318.15 K, x1 = 0.1928 | 1073.33 | 1134 | 3.734
318.15 K, x1 = 0.2895 | 1146.9 | 1142.4 | 5.367
318.15 K, x1 = 0.3911 | 1202.04 | 1151 | 7.383
318.15 K, x1 = 0.4877 | 1241.33 | 1157.7 | 9.855
318.15 K, x1 = 0.6028 | 1277.27 | 1164.8 | 13.26
318.15 K, x1 = 0.6999 | 1301.3 | 1169.8 | 16.47
318.15 K, x1 = 0.8016 | 1322.04 | 1174.3 | 20.58
318.15 K, x1 = 0.8999 | 1338.82 | 1178.1 | 25.19
338.15 K, x1 = 0.048 | 868.04 | 1069.2 | 1.203
338.15 K, x1 = 0.0991 | 949.6 | 1071.6 | 1.565
338.15 K, x1 = 0.1928 | 1054.71 | 1081.8 | 2.399
338.15 K, x1 = 0.2895 | 1128.21 | 1092.8 | 3.401
338.15 K, x1 = 0.3911 | 1183.4 | 1103.3 | 4.568
338.15 K, x1 = 0.4877 | 1222.81 | 1111.4 | 5.928
338.15 K, x1 = 0.6028 | 1258.9 | 1119.7 | 7.803
338.15 K, x1 = 0.6999 | 1283.03 | 1125.6 | 9.596
338.15 K, x1 = 0.8016 | 1303.87 | 1130.8 | 11.71
338.15 K, x1 = 0.8999 | 1320.72 | 1135.3 | 13.92

CCCC[n+]1ccn(C)c1.O=S(=O)([N-]S(=O)(=O)C(F)(F)F)C(F)(F)F + CCCO
Conditions | mass density [kg/m3] | speed of sound [m/s] | viscosity [mPa·s]
278.15 K, x1 = 0.0508 | 926.62 | 1252.2 | 4.722
278.15 K, x1 = 0.0949 | 1002.03 | 1241 | 6.623
278.15 K, x1 = 0.1989 | 1130.78 | 1235.7 | 11.44
278.15 K, x1 = 0.2976 | 1214 | 1239.7 | 16.84
278.15 K, x1 = 0.3912 | 1272.23 | 1245.7 | 22.98
278.15 K, x1 = 0.4852 | 1317.37 | 1250.9 | 31.14
278.15 K, x1 = 0.5929 | 1358.04 | 1256.8 | 42.15
278.15 K, x1 = 0.692 | 1388.04 | 1261.7 | 56.15
278.15 K, x1 = 0.7968 | 1414.14 | 1266.2 | 76.57
278.15 K, x1 = 0.903 | 1436.28 | 1270.3 | 102.44
298.15 K, x1 = 0.0508 | 909.64 | 1188.9 | 2.701
298.15 K, x1 = 0.0949 | 984.4 | 1181.4 | 3.573
298.15 K, x1 = 0.1989 | 1112.17 | 1180.9 | 5.908
298.15 K, x1 = 0.2976 | 1194.92 | 1187.6 | 8.374
298.15 K, x1 = 0.3912 | 1252.93 | 1195.6 | 10.88
298.15 K, x1 = 0.4852 | 1297.96 | 1201.7 | 14.14
298.15 K, x1 = 0.5929 | 1338.58 | 1208.6 | 18.55
298.15 K, x1 = 0.692 | 1368.59 | 1214.5 | 23.83
298.15 K, x1 = 0.7968 | 1394.7 | 1219.5 | 30.51
298.15 K, x1 = 0.903 | 1416.85 | 1224 | 39.95
318.15 K, x1 = 0.0508 | 892.29 | 1127.5 | 1.693
318.15 K, x1 = 0.0949 | 966.47 | 1123.7 | 2.187
318.15 K, x1 = 0.1989 | 1093.43 | 1128.2 | 3.491
318.15 K, x1 = 0.2976 | 1175.83 | 1137.6 | 4.677
318.15 K, x1 = 0.3912 | 1233.7 | 1147.2 | 6.173
318.15 K, x1 = 0.4852 | 1278.71 | 1154.6 | 7.805
318.15 K, x1 = 0.5929 | 1319.36 | 1162.5 | 10.1
318.15 K, x1 = 0.692 | 1349.4 | 1169.2 | 12.76
318.15 K, x1 = 0.7968 | 1375.56 | 1174.9 | 15.78
318.15 K, x1 = 0.903 | 1397.74 | 1180.1 | 19.35
338.15 K, x1 = 0.0508 | 874.3 | – | 1.136
338.15 K, x1 = 0.0519 | – | 1066.7 | –
338.15 K, x1 = 0.0949 | 948.03 | – | 1.457
338.15 K, x1 = 0.1037 | – | 1066.7 | –
338.15 K, x1 = 0.1989 | 1074.44 | – | 2.303
338.15 K, x1 = 0.2013 | – | 1076.8 | –
338.15 K, x1 = 0.2976 | 1156.66 | – | 3.004
338.15 K, x1 = 0.3088 | – | 1089 | –
338.15 K, x1 = 0.3912 | 1214.5 | – | 3.93
338.15 K, x1 = 0.3963 | – | 1100 | –
338.15 K, x1 = 0.4852 | 1259.59 | – | 4.908
338.15 K, x1 = 0.4918 | – | 1109.1 | –
338.15 K, x1 = 0.5723 | – | 1118.3 | –
338.15 K, x1 = 0.5929 | 1300.32 | – | 6.258
338.15 K, x1 = 0.692 | 1330.43 | – | 7.446
338.15 K, x1 = 0.7026 | – | 1125.4 | –
338.15 K, x1 = 0.7968 | 1356.65 | – | 9.633
338.15 K, x1 = 0.8055 | – | 1132 | –
338.15 K, x1 = 0.9025 | – | 1137.8 | –
338.15 K, x1 = 0.903 | 1378.89 | – | 11.48

CCn1cc[n+](C)c1.O=S(=O)([N-]S(=O)(=O)C(F)(F)F)C(F)(F)F + CCCO
Conditions | mass density [kg/m3] | speed of sound [m/s] | viscosity [mPa·s]
278.15 K, x1 = 0.4918 | 1372.4 | 1253.1 | 20.94
278.15 K, x1 = 0.5723 | 1410.18 | 1259.6 | 25.39
278.15 K, x1 = 0.7026 | 1459.58 | 1268.7 | 34.81
278.15 K, x1 = 0.8055 | 1491.11 | 1274.9 | 44.9
278.15 K, x1 = 0.9025 | 1516.35 | 1280 | 56.99
298.15 K, x1 = 0.0519 | 914.24 | 1184.8 | 2.639
298.15 K, x1 = 0.1037 | 1005.11 | 1175.1 | 3.53
298.15 K, x1 = 0.2013 | 1134.16 | 1175.8 | 5.134
298.15 K, x1 = 0.3088 | 1235.5 | 1186.2 | 6.891
298.15 K, x1 = 0.3963 | 1297.78 | 1195.6 | 8.358
298.15 K, x1 = 0.4918 | 1352.18 | 1205 | 10.6
298.15 K, x1 = 0.5723 | 1389.87 | 1212.2 | 12.63
298.15 K, x1 = 0.7026 | 1439.2 | 1222.2 | 16.89
298.15 K, x1 = 0.8055 | 1470.7 | 1228.9 | 21.07
298.15 K, x1 = 0.9025 | 1495.92 | 1234.3 | 25.97
318.15 K, x1 = 0.0519 | 896.79 | 1124.1 | 1.656
318.15 K, x1 = 0.1037 | 986.91 | 1119.3 | 2.083
318.15 K, x1 = 0.2013 | 1115.01 | 1124.8 | 2.938
318.15 K, x1 = 0.3088 | 1215.8 | 1137.8 | 3.978
318.15 K, x1 = 0.3963 | 1277.87 | 1148.3 | 4.994
318.15 K, x1 = 0.4918 | 1332.15 | 1158.9 | 6.245
318.15 K, x1 = 0.5723 | 1369.81 | 1166.8 | 7.454
318.15 K, x1 = 0.7026 | 1419.12 | 1177.7 | 9.792
318.15 K, x1 = 0.8055 | 1450.62 | 1185 | 11.97
318.15 K, x1 = 0.9025 | 1475.84 | 1191 | 14.58
338.15 K, x1 = 0.0519 | 878.72 | 1064.4 | 1.117
338.15 K, x1 = 0.1037 | 968.2 | 1064.1 | 1.389
338.15 K, x1 = 0.2013 | 1095.6 | 1074.6 | 1.956
338.15 K, x1 = 0.3088 | 1196.06 | 1090.4 | 2.656
338.15 K, x1 = 0.3963 | 1258.02 | 1102.6 | 3.333
338.15 K, x1 = 0.4918 | 1312.29 | 1114.4 | 4.156
338.15 K, x1 = 0.5723 | 1349.96 | 1123.2 | 4.931
338.15 K, x1 = 0.7026 | 1399.28 | 1135.3 | 6.395
338.15 K, x1 = 0.8055 | 1430.83 | 1143.2 | 7.634
338.15 K, x1 = 0.9025 | 1456.06 | 1149.7 | 9.201
